Laboratory results published in patent publication US20130210664A1, “Methods for the Identification of Methyltransferase Interacting Molecules and for the Purification of Methyltransferase Proteins” (Cellzome AG, priority 2010, published 2013).

Legend:
Test in all cases: Competition binding bead assay with immobilized compound 6 in cell lysate, iTRAQ LC-MS/MS quantitation
DPH5 = test system: DPH5; design: species or system human; settings: 200 μM free compound 6, mixed Jurkat and Ramos cell lysates, versus DMSO solvent control
Method: (§1) To the first aliquot of cell lysate 200 μM of the free compound 6 was added and allowed to bind to proteins in the lysate. Then the affinity matrix with the immobilized compound (Example 1) was added to capture proteins that were not interacting with the previously added free compound. Beads were separated from the lysate and bead bound proteins were eluted in SDS sample buffer and subsequently separated by SDS-Polyacrylamide gel electrophoresis. Suitable gel bands were cut out and subjected to in-gel proteolytic digestion with trypsin. The second lysate aliquot was processed identically, however no free compound was added (DMSO solvent control). Peptides originating from samples 1 and 2 were labeled with iTRAQ reagents (iTRAQ 114 and iTRAQ 116) and the combined samples were analyzed with a nano-flow liquid chromatography system coupled online to a tandem mass spectrometer (LC-MS/MS) experiment followed by iTRAQ reporter ion quantification in the MS/MS spectra (Ross et al., 2004. Mol. Cell. Proteomics 3(12):1154-1169). Further experimental protocols can be found in WO2006/134056 and a previous publication (Bantscheff et al., 2007. Nature Biotechnology 25, 1035-1044).
(§2) The identified methyltransferases are shown in Table 5 including the percent competition values for the sample to which 200 μM free compound had been added. […]

SETD7 = biological target: T1, SETD7 (Homo sapiens, UniProt Q8WTS6); settings: SETD7 (IPI00028366.2); 200 μM free compound 6; mixed Jurkat and Ramos cell lysates; versus DMSO solvent control
T1 construct: endogenous in cells; host or cells: Jurkat (ATCC TIB-152) and Ramos (ATCC CRL-1596) cells, mixed lysate
T1 sequence (Q8WTS6 1-366): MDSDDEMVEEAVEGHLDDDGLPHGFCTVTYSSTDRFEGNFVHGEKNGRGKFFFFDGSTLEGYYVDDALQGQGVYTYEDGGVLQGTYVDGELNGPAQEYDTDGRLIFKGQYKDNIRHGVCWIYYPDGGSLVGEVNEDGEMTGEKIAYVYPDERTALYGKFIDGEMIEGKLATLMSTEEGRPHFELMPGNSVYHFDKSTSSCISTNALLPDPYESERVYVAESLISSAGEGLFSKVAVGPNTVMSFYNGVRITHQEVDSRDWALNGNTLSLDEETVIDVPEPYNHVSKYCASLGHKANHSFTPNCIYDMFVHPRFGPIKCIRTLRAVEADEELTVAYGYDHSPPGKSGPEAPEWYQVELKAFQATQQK
Method: as §1, §2

SMYD5 = biological target: T2, SMYD5 (Homo sapiens, UniProt Q6GMV2); settings: SMYD5 (IPI00013789.5); 200 μM free compound 6; mixed Jurkat and Ramos cell lysates; versus DMSO solvent control
T2 construct: endogenous in cells; host or cells: Jurkat (ATCC TIB-152) and Ramos (ATCC CRL-1596) cells, mixed lysate
T2 sequence (Q6GMV2 1-418): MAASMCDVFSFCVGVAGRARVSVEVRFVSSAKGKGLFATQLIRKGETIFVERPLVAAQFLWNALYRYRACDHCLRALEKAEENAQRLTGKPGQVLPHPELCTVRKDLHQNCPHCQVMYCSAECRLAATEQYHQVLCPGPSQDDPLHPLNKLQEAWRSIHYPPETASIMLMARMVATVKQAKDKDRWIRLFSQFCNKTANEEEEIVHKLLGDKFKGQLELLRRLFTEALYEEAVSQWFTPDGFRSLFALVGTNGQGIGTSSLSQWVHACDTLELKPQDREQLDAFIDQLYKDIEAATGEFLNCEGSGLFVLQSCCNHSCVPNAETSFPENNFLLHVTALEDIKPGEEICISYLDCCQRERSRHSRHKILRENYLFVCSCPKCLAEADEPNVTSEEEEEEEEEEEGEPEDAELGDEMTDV
Method: as §1, §2

% Competition (SETD7): 94.1% | % Competition (SMYD5): 95.9%
SMILES: NCCCNc1nc(N)c2ncn([C@@H]3O[C@H](CSCC[C@H](N)C(=O)O)[C@@H](O)[C@H]3O)c2n1 [Compound 6, (S)-2-amino-4-((((2S,3S,4R,5R)-5-(6-amino-2-((3-aminopropyl)amino)-9H-purin-9-yl)-3,4-dihydroxytetrahydrofuran-2-yl)methyl)thio)butanoic acid]
% Competition (DPH5): 50.0%
